Assay results published in US20030049814A1, “Herbicide resistant plants” (priority 1999, published 2003).
Structures can show the parent of a compound that is named as a salt.

Experiments:
[1] = tested on: resistant form of EPSPS; experiment: EPSPS assay of plant extracts with or without glyphosate, resistant enzyme; assay type: biochemical, rice; conditions: 0.1 mM glyphosate, 0.1 mM 14C-PEP, 0.75 mM shikimate-3-Pi
Experimental: (§1) Assays are carried out generally according to the radiochemical method of Padgette et al 1987 (Archives of Biochemistry and Biophysics, 258(2) 564-573) with K+ions as the major species of cationic counterion. Assays in a total volume of 50 μl, in 50 mM Hepes(KOH) pH 7.0 at 25° C., contain purified enzyme or plant extract (see below) diluted appropriately in Hepes pH 7.0 containing 10% glycerol, and 5 mM DTT, ^14C PEP either as variable substrate(for kinetic determinations) or fixed at 100 or 250 μM and shikimate 3 Phosphate (K+salt) at 2 or 0.75 mM as indicated. Optionally, for assays of crude plant extracts, assays also contain 5 mM KF and/or 0.1 mM ammonium molybdate. Assays are started with the addition of ^14C phosphoenolpyruvate (cyclohexylammonium+salt) and stopped after 2-10 minutes (2 minutes is preferable) with the addition of 50μl of a solution of 1 part 1M acetic acid and 9 parts ethanol. […] Apparent Km and Vmax values are determined by least squares fit to a hyperbola with simple weighting using the Grafit 3.09b from Erithacus Software Ltd. Km values are generally ascertained using 8-9 concentrations of variable substrate ranging from Km/2-10 Km and triplicate points. […]

[2] = tested on: sensitive w/t form of EPSPS (endogenous); experiment: EPSPS assay of plant extracts with or without glyphosate, sensitive enzyme; assay type: biochemical, corn; conditions: 0.1 mM glyphosate, 0.1 mM 14C-PEP, 0.75 mM shikimate-3-Pi
Experimental: as §1

[3] = target: T1, mutant form of rice EPSPS (Oryza sativa, UniProt A0A0N9WU17, P177S/T173I); experiment: EPSPS enzyme assay (radiochemical) of purified mutant rice EPSPS; assay type: biochemical
T1 sequence (A0A0N9WU17 72-515 T173I/P177S): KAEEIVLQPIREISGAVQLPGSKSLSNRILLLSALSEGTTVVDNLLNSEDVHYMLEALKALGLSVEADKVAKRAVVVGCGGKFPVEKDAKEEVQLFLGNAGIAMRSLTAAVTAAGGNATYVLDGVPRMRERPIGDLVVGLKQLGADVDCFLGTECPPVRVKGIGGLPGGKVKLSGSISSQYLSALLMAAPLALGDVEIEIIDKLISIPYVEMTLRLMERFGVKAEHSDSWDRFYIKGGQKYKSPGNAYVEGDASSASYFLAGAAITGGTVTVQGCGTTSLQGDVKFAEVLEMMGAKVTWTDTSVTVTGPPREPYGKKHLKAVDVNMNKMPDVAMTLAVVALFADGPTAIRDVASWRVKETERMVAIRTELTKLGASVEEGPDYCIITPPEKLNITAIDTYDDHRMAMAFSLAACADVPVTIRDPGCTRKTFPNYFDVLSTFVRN
Excerpt: The resultant products are gel purified and placed into a tube in eqi-molar concentrations to serve as a template for another round of PCRs with the rice 5′ and 3′ oligos. The resultant products are cloned into pCRBlunt II using Invitrogens Zero Blunt TOPO kit. It is confirmed that the DNA sequence of the insert and its predicted open reading frame correspond to that of the predicted mature chloroplastic rice EPSPS protein (with the exception of the presence of an initiating Met) and also that the desired changes (the specific mutation of T to I and P to S at specific positions in the EPSPS sequence) are encoded . The thus cloned and verified rice epsps sequence is excised using Nde 1 and Xho 1 and the purified fragment cloned into pET24a (Novagen) digested similarly. The recombinant clones are introduced into BL21 (DE3), a codon optimised RP strain of E. coli supplied by Strategene. The EPSPS protein is expressed in this strain following addition of 1 mM IPTG to the fermenter medium (LB supplemented with 100 ug/ml Kanamycin). […]

Row | SMILES | inhibition of resistant (tolerant) EPSPS [1] [%] | inhibition of resistant (tolerant) EPSPS ([1]; listed as glyphosate) [%] | inhibition of sensitive w/t (endogenous) EPSPS [2] [%] | IC50 [3] [µM] | Ki [3] [µM]
1 | O=C(O)CNCP(=O)(O)O [N-(phosphonomethyl)glycine, N-phosphonomethylglycine] | < 8.5 | ~8 | > 98 |  | 
2 | O=C(O)CNCP(=O)(O)O [potassium salt of glyphosate] |  |  |  | ~600 | ~200
